Experimental data: patent US20070219144A1, “IMMUNOMODULATORY SACCHARIDE COMPOUNDS” (University of Alberta, priority 2006, published 2007)
“Also recorded” adds a separate entry of the source.

Tests used:
Assay type in all cases: cell-based, human
IL-12p70 [1] = experiment: Inhibition of IFN-γ/SAC-induced IL-12p70 production in THP-1 cells after pre-incubation (ELISA); conditions: for inhibition of IL-12p70 response induced by IFN-γ/SAC: 10 or 100 μg/mL, FIG. 11B; for inhibition of the cytokine response (IL-12p70) induced by IFN-γ/SAC: general statement, no concentration given; for inhibition of IL-12p70 production induced by IFN-γ/SAC: 5 μM, FIG. 13
IL-12p70 [2] = experiment: IL-12p70 induction in THP-1 cells by compound alone (ELISA); conditions: 10 or 100 μg/mL
Method: (§1) Experiments were conducted to determine the role for the MTX residue. Given its location in the capping motif in LAM from M. tuberculosis, it was hypothesized that the residue may function as an immunomodulatory species. Thus, the ability of 3 and 34 to induce or inhibit the production of the TNF-α and IL-12p70 was evaluated using a human monocytic cell line (THP-1). THP-1 cells were re-suspended at a concentration of 5×10^6 cells/mL in RPMI 1640+10% FCS+1% GPS (200 mM penicillin/streptomycin (Sigma UK)+2 mM L-glutamine (Invitrogen)) and plated into a 48-well plate (500 μL/well). Cells were treated with either 3 or 34 (100 μg and 10 μg/mL) or AraLAM or ManLAM (10 μg/mL) for 24 hours and then stimulated for a further 8 hours with a combination of Staphylococcus aureus Cowan (SAC) (Pansorbin™, Calbiochem, UK) and human IFNγ (1000 U/mL, Preprotech). Following incubation, the supernatants were collected and stored in 200 μL aliquots (−80° C.) and analyzed by ELISA (R&D systems) for IL12p70 and TNF-α production.

TNF-α [3] = experiment: TNF-α induction in THP-1 cells by compound alone (ELISA); conditions: 10 or 100 μg/mL
Method: as §1

TNF-α [4] = experiment: Inhibition of IFN-γ/SAC-induced TNF-α production in THP-1 cells after pre-incubation (ELISA); conditions: for inhibition of TNF-α production induced by IFN-γ/SAC / induction of TNF-α production in the IFN-γ/SAC assay: 5 μM, FIG. 12; for inhibition of TNF-α response induced by IFN-γ/SAC: FIG. 11A; for inhibition of the cytokine response (TNF-α) induced by IFN-γ/SAC: general statement, no concentration given

| Structure (SMILES) | inhibition of IL-12p70 response induced by IFN-γ/SAC (IL-12p70 [1]) | inhibition of the cytokine response (IL-12p70) induced by IFN-γ/SAC (IL-12p70 [1]) | induction of IL-12p70 production (IL-12p70 [2]) | induction of TNF-α production (TNF-α [3]) | inhibition of TNF-α production induced by IFN-γ/SAC (TNF-α [4]) | inhibition of TNF-α response induced by IFN-γ/SAC (TNF-α [4]; 100 μg/mL) | inhibition of the cytokine response (TNF-α) induced by IFN-γ/SAC (TNF-α [4]) | inhibition of IL-12p70 production induced by IFN-γ/SAC (IL-12p70 [1]) | induction of TNF-α production in the IFN-γ/SAC assay (TNF-α [4]) | inhibition of TNF-α response induced by IFN-γ/SAC (TNF-α [4]; 10 μg/mL) |
| --- | --- | --- | --- | --- | --- | --- | --- | --- | --- | --- |
| CO[C@H]1O[C@H](CO)[C@@H](O[C@H]2O[C@H](CSC)[C@H](O)[C@H]2O)[C@H](O)[C@@H]1O [Compound 3, Methyl 4-O-(5-deoxy-5-methylthio-α-D-xylofuranosyl)-α-D-mannopyranoside] | only a very modest effect | modest levels of inhibition; also recorded: modest inhibitory properties | Neither 3 nor 34, when tested at concentrations of 10 or 100 μg/mL, significantly induced the production of these two cytokines; also recorded: did not lead to production | Neither 3 nor 34, when tested at concentrations of 10 or 100 μg/mL, significantly induced the production of these two cytokines; also recorded: did not lead to production | inhibited TNF-α production to a similar degree as a 5 μM concentration of ManLAM | level of inhibition comparable with ManLAM at 10 μg/mL | modest levels of inhibition; also recorded: modest inhibitory properties |  |  |  |
| CO[C@H]1O[C@H](CO)[C@H](O)[C@H]1O [Compound 35, methyl α-D-xylofuranoside, reference compound] |  |  |  |  | none of these compounds inhibited cytokine induction |  |  | inhibited induction, but to a degree intermediate between 3 and 34 | appeared to induce production of TNF-α to varying degrees |  |
| CO[C@H]1O[C@H](CO)[C@@H](O[C@@H]2O[C@@H](CSC)[C@@H](O)[C@@H]2O)[C@H](O)[C@@H]1O [Compound 6, Methyl 4-O-(5-deoxy-5-methylthio-α-L-xylofuranosyl)-α-D-mannopyranoside] |  |  |  |  | none of these compounds inhibited cytokine induction |  |  | inhibited induction, but to a degree intermediate between 3 and 34 | appeared to induce production of TNF-α to varying degrees |  |
| CO[C@H]1O[C@H](CO)[C@@H](O)[C@H](O[C@H]2O[C@H](CSC)[C@H](O)[C@H]2O)[C@@H]1O [Compound 2, Methyl 3-O-(5-deoxy-5-methylthio-α-D-xylofuranosyl)-α-D-mannopyranoside] |  |  |  |  | none of these compounds inhibited cytokine induction |  |  | inhibited induction, but to a degree intermediate between 3 and 34 | appeared to induce production of TNF-α to varying degrees |  |
| CO[C@H]1O[C@H](CO)[C@@H](O)[C@H](O)[C@@H]1O[C@H]1O[C@H](CSC)[C@H](O)[C@H]1O [Compound 1, Methyl 2-O-(5-deoxy-5-methylthio-α-D-xylofuranosyl)-α-D-mannopyranoside] |  |  |  |  | none of these compounds inhibited cytokine induction |  |  | inhibited induction, but to a degree intermediate between 3 and 34 | appeared to induce production of TNF-α to varying degrees |  |
| CO[C@H]1OC(CO)[C@@H](O[C@H]2O[C@H](C[S+](C)[O-])C(O)[C@@H]2O)[C@H](O)C1O (mixture of isomers) [Compound 34] | only a very modest effect | modest levels of inhibition; also recorded: modest inhibitory properties | Neither 3 nor 34, when tested at concentrations of 10 or 100 μg/mL, significantly induced the production of these two cytokines; also recorded: did not lead to production | Neither 3 nor 34, when tested at concentrations of 10 or 100 μg/mL, significantly induced the production of these two cytokines; also recorded: did not lead to production | weaker inhibitor than 3 |  | modest levels of inhibition; also recorded: modest inhibitory properties | less active |  | less effective and comparable to AraLAM at 10 μg/mL |
